From ChEMBL document CHEMBL1137360, “Structure-activity relationships of a novel series of urotensin II analogues: identification of a urotensin II antagonist” (J Med Chem, 2006)
The source made the active and inactive calls. No cut-off for these calls is given here.

Assays:
Rattus norvegicus [1] = species on record: Rattus norvegicus; test: Agonist activity in rat aortic ring contraction assay; format: functional; conditions: Aorta
[2] = target: T1, Urotensin-2 receptor (Rattus norvegicus) (UniProt P49684); test: Antagonist activity against 0.1 uM human urotensin-2-induced contraction of rat aortic ring; format: functional, tissue-based; parameters: scale not given: the % may be the effect or the level left; conditions: Aorta
T1 sequence (whole entry): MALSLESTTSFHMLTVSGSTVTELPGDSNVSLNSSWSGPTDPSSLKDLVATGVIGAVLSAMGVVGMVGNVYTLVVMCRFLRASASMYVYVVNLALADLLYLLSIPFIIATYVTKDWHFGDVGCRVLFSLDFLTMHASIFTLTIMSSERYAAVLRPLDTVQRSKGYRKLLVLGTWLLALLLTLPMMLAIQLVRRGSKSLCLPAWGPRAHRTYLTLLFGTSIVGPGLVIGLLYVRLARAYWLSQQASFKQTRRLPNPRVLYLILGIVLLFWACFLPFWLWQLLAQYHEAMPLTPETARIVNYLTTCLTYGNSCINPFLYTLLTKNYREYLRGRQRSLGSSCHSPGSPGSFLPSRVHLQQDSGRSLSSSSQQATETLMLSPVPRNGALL

Rattus norvegicus [3] = species on record: Rattus norvegicus; test: Agonist activity in rat aortic ring contraction assay relative to 1 uM phenylephrine; format: functional; conditions: Aorta
Urotensin-2 receptor [4] = target: T2, Urotensin-2 receptor (Homo sapiens, UniProt Q9UKP6); test: Displacement of [125I]human urotensin-2 from human GPR14 transfected in CHO cells; format: cell-based
T2 sequence (Q9UKP6 whole entry): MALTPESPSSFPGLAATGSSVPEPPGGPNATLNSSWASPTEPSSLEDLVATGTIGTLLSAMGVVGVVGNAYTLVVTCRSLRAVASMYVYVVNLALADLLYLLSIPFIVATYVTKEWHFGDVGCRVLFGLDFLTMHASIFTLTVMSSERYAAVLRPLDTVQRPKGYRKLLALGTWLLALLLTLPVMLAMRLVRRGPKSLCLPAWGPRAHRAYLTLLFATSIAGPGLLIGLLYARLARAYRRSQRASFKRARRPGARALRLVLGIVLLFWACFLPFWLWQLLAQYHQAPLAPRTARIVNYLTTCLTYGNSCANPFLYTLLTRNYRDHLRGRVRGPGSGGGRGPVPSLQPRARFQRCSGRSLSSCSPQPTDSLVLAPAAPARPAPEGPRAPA

Urotensin-2 receptor [5] = target: T3, Urotensin-2 receptor (Rattus norvegicus, UniProt P49684); test: Antagonist potency against human urotensin-2-induced contraction of rat aortic ring; format: functional, tissue-based, Aorta; conditions: read-out: pA2 (converted)
T3 sequence (P49684 whole entry): T1 sequence (whole entry)

EC50 (Rattus norvegicus [1]): > 10000 nM
Activity [2]: 95.7%
Ki (Urotensin-2 receptor [4]): 407 nM
Kb (Urotensin-2 receptor [5]): 813 nM
Structure (SMILES): CC(C)[C@H](NC(=O)[C@@H]1CSSC[C@H](NC(=O)[C@@H](N)CC(=O)O)C(=O)N[C@@H](CC2CCCCC2)C(=O)N[C@@H](Cc2c[nH]c3ccccc23)C(=O)N[C@@H](CCCCN)C(=O)N[C@@H](Cc2ccc(O)cc2)C(=O)N1)C(=O)O
Activity (Rattus norvegicus [3]): inactive
